The test deals with T1, human GPR119 (Homo sapiens, UniProt Q8TDV5).
T1 construct: expressed in transfected cells; host or cells: Flp-in T-Rex-293 cells (Invitrogen #R78007), plasmid pcDNA5/FRT/TO, expression induced with tetracycline
T1 sequence (Q8TDV5 1-335): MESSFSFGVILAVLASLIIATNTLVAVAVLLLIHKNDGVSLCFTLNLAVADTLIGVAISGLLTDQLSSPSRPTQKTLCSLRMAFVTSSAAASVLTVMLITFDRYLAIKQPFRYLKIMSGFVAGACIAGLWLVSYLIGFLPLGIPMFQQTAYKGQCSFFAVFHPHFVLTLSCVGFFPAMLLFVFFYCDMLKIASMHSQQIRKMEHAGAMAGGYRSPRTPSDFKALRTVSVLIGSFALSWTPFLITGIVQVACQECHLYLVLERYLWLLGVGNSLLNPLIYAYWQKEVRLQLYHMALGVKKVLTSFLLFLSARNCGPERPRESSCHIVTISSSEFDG
The test can be described thus: Measurement of intracellular cAMP in stable cell line expressing human GPR119 (GPR119 agonist effect). The test is classed as cell-based. The following applies: increase of intracellular cAMP, Flp-in T-Rex-293 cells expressing human GPR119, 37° C. for 30 minutes.
Description: The GPR119 agonist effect is studied by measuring the effect of an analyte on increase of intracellular amount of cAMP in human GPR119 introduced cells. The testing method is described below.
Human GPR119 gene (NM 178471) is purchased from ATCC (ATCC No. 10807349), and is amplyfied according to PCR to form BamHI site at 5′ side and Apa I site at 3′ side. The primers are […] (sequence No. 1) and […] (sequence No. 2). The PCR conditions are described below.
The double-stranded DNA is thermally denatured using a DNA polymerase (KOD-Plus-Ver. 2; TOYOBO #KOD-211) at 98° C. for 10 seconds in one cycle. The denatured single-stranded DNA is annealed with the primers at 55° C. for 30 seconds. The DNA is subjected to an extension reaction at 68° C. for 1 minute and 15 seconds. The above-mentioned steps are repeated in 35 cycles. The PCR product is inserted into pcDNA5/FRT/TO (Invitrogen #V6520-20) plasmid. Flp-in T-Rex-293 cells (Invitorogen #R78007) are transfected with the obtained plasmid. The method of transfection is conducted in accordance with the protocol of the product.
(§1) The stable cell line expressing human GPR119 prepared in the above-mentioned method is plated on a 96-well plate at the concentration of 2,500 cells/well using Dulbecco's Modified Eagle Medium (DMEM) containing 10% fetal bovine serum (FBS). Twenty-four hours after plating, tetracyclin (Invitrogen #Q10019) is added at the final concentration of 20 ng/mL to induce hGPR119 gene expression. Twenty-four hours after, the medium is removed, and the cells are stimulated with an assay buffer (0.5 mM IBMX PBS (−)) containing the test compound at 37° C. for 30 minutes. The amount of the intracellular cAMP is measured using a commercially available kit (HitHunter™ cAMP XS+Assay: GE Healthcare #90007503) and a reader (FLUOstar Optima: BMG LABTECH). The test compound is dissolved in 100% DMSO, and added at the final concentration of 1%.
Human GPR119 gene (NM 178471) was purchased from ATCC (ATCC No. 10807349), and is amplyfied according to PCR to form BamHI site at 5′ side and Apa I site at 3′ side. The primers were […] (sequence No. 1) and […] (sequence No. 2). The PCR conditions are described below. The double-stranded DNA was thermally denatured using a DNA polymerase (KOD-Plus-Ver. 2; TOYOBO #KOD-211) at 98° C. for 10 seconds in one cycle. The denatured single-stranded DNA was annealed with the primers at 55° C. for 30 seconds. The DNA was subjected to an extension reaction at 68° C. for 1 minute and 15 seconds. The above-mentioned steps were repeated in 35 cycles. The PCR product was inserted into pcDNA5/FRT/TO (Invitrogen #V6520-20) plasmid. Flp-in T-Rex-293 cells (Invitorogen #R78007) were transfected with the obtained plasmid. The method of transfection was conducted in accordance with the protocol of the product.
as §1, with “method was” for “method is”, “#Q10019) was” for “#Q10019) is”, “medium was” for “medium is”, “cells were” for “cells are”, “cAMP was” for “cAMP is”, “compound was” for “compound is”
The examination was performed by the method similar to Example 87 Pharmacological experiment 1-(1), -(2).

SMILES strings stand for the structures.

Take `Cc1cc(C2CCN(C(=O)OC(C)(C)C)CC2)cnc1Cn1ccc2cc(S(C)(=O)=O)ccc21` [Example 5, tert-Butyl 4-[2-(5-methanesulfonylindol-1-ylmethyl)-3-methylpyridin-5-yl]piperidine-1-carboxylate]: the EC50 (commonly the concentration giving half of the maximal effect) turned out to be 31.6 nM.
The value for `CC(C)(C)OC(=O)N1CCC(c2ccc(-c3cc4cc(S(C)(=O)=O)ccc4o3)nc2)CC1` [Example 9, tert-Butyl 4-[2-(5-methanesulfonylbenzofuran-2-yl)pyridin-5-yl]piperidine-1-carboxylate] was 420 nM; that for `CC(C)(C)OC(=O)N1CCC(c2ccc(Cn3ccc4cc(S(C)(=O)=O)cc(F)c43)nc2)CC1` [Example 11, tert-Butyl 4-[2-(7-fluoro-5-methanesulfonylindol-1-ylmethyl)pyridin-5-yl]piperidine-1-carboxylate] was 21.4 nM.
The value for `CC(C)(C)OC(=O)N1CCC(c2cnc(Cn3ccc4cc(S(C)(=O)=O)ccc43)c(F)c2)CC1` [Example 13, tert-Butyl 4-[3-fluoro-2-(5-methanesulfonylindol-1-ylmethyl)pyridin-5-yl]piperidine-1-carboxylate] was 36.3 nM; that for `CC(C)(C)OC(=O)N1CCC(c2cnc(Cn3ccc4cc(S(C)(=O)=O)ccc43)c(Cl)c2)CC1` [Example 14, tert-Butyl 4-[3-chloro-2-(5-methanesulfonylindol-1-ylmethyl)pyridin-5-yl]piperidine-1-carboxylate] was 9.5 nM.
The value for `CC(C)c1nc(N2CCC(c3ccc(Cn4ccc5cc(S(C)(=O)=O)ccc54)nc3)CC2)no1` [Example 16, 5-Isopropyl-3-[4-[2-(5-methanesulfonylindol-1-ylmethyl)pyridin-5-yl]piperidin-1-yl]-[1,2,4]oxadiazole] was 49.1 nM.
Consider `CC(C)(C)OC(=O)N1CCC(c2ccc(Cn3ccc4cc(S(C)(=O)=O)cnc43)nc2)CC1` [Example 17, tert-Butyl 4-[2-(5-methanesulfonyl-1H-pyrrolo[2,3-b]pyridin-1-ylmethyl)pyridin-5-yl]piperidine-1-carboxylate], for which the EC50 turned out to be 30.4 nM.
The value for `CC(C)(C)OC(=O)N1CCC(c2ccc(Cn3ccc4cc(S(C)(=O)=O)cc([N+](=O)[O-])c43)nc2)CC1` [Example 18, tert-Butyl 4-[2-(5-methanesulfonyl-7-nitroindol-1-ylmethyl)pyridin-5-yl]piperidine-1-carboxylate] was 25.6 nM; that for `CC(C)(C)OC(=O)N1CCC(c2ccc(Cn3ccc4cc(S(C)(=O)=O)cc(N)c43)nc2)CC1` [Example 19, tert-Butyl 4-[2-(7-amino-5-methanesulfonylindol-1-ylmethyl)pyridin-5-yl]piperidine-1-carboxylate] was 181 nM.
As for `CC(C)(C)OC(=O)N1CCC(c2ccc(Cn3ccc4cc(-n5cnnn5)ccc43)nc2)CC1` [Example 20, tert-Butyl 4-[2-[5-(tetrazol-1-yl)indol-1-ylmethyl]pyridin-5-yl]piperidine-1-carboxylate], the figure is 18.5 nM; as for `CC(C)(C)OC(=O)N1CCC(c2ccc(Cn3ncc4cc(S(C)(=O)=O)ccc43)nc2)CC1` [Example 21, tert-Butyl 4-[2-(5-methanesulfonylindazol-1-ylmethyl)pyridin-5-yl]piperidine-1-carboxylate], 428 nM; as for `CC(C)(C)OC(=O)N1CCC(c2ccc(Cn3cc4cc(S(C)(=O)=O)ccc4n3)nc2)CC1` [Example 22, tert-Butyl 4-[2-(5-methanesulfonylindazol-2-ylmethyl)pyridin-5-yl]piperidine-1-carboxylate], 458 nM.
As for `CC(C)(C)OC(=O)N1CCC(c2ccc(Cn3ccc4c(F)c(S(C)(=O)=O)ccc43)nc2)CC1` [Example 23, tert-Butyl 4-[2-(4-fluoro-5-methanesulfonylindol-1-ylmethyl)pyridin-5-yl]piperidine-1-carboxylate], the figure is 51.3 nM; as for `CC(C)(C)OC(=O)N1CCC(c2ccc(CN3CCc4cc(S(C)(=O)=O)cc(F)c43)nc2)CC1` [Example 25, tert-Butyl 4-[2-(7-fluoro-5-methanesulfonylindolin-1-ylmethyl)pyridin-5-yl]piperidine-1-carboxylate], 20.2 nM.
`Cc1cc(S(C)(=O)=O)cc2ccn(Cc3ccc(C4CCN(C(=O)OC(C)(C)C)CC4)cn3)c12` [Example 26, tert-Butyl 4-[2-(5-methanesulfonyl-7-methylindol-1-ylmethyl)pyridin-5-yl]piperidine-1-carboxylate] registered an EC50 of 59.3 nM.
The value for `CC(C)(C)OC(=O)N1CCC(c2ccc(Cn3ccc4cc(S(C)(=O)=O)cc(Cl)c43)nc2)CC1` [Example 27, tert-Butyl 4-[2-(7-chloro-5-methanesulfonylindol-1-ylmethyl)pyridin-5-yl]piperidine-1-carboxylate] was 13.9 nM; that for `Cc1nc(S(C)(=O)=O)cc2ccn(Cc3ccc(C4CCN(C(=O)OC(C)(C)C)CC4)cn3)c12` [Example 28, tert-Butyl 4-[2-(5-methanesulfonyl-7-methyl-1H-pyrrolo[2,3-c]pyridin-1-ylmethyl)pyridin-5-yl]piperidine-1-carboxylate] was 82.1 nM.
As for `CC(C)(C)OC(=O)N1CCC(c2ccc(Cn3ccc4cc(S(C)(=O)=O)ncc43)nc2)CC1` [Example 29, tert-Butyl 4-[2-(5-methanesulfonyl-1H-pyrrolo[2,3-c]pyridin-1-ylmethyl)pyridin-5-yl]piperidine-1-carboxylate], the figure is 39 nM; as for `CCc1cnc(N2CCC(c3ccc(Cn4ccc5cc(S(C)(=O)=O)ccc54)nc3)CC2)nc1` [Example 30, 5-Ethyl-2-[4-[2-(5-methanesulfonylindol-1-ylmethyl)pyridin-5-yl]piperidin-1-yl]pyrimidine], 11.7 nM.
As for `CC(C)(C)OC(=O)N1CCC(c2ccc(Cn3ccc4cc(S(C)(=O)=O)c(Cl)cc43)nc2)CC1` [Example 31, tert-Butyl 4-[2-(6-chloro-5-methanesulfonylindol-1-ylmethyl)pyridin-5-yl]piperidine-1-carboxylate], the figure is 41.1 nM; as for `CCc1cnc(N2CCC(c3ccc(Cn4ccc5cc(S(C)(=O)=O)c(F)cc54)nc3)CC2)nc1` [Example 32, 5-Ethyl-2-[4-[2-(6-fluoro-5-methanesulfonylindol-1-ylmethyl)pyridin-5-yl]piperidin-1-yl]pyrimidine], 52 nM.
Regarding `CCc1cnc(N2CCC(c3ccc(Cn4ccc5cc(-n6cnnn6)ccc54)nc3)CC2)nc1` [Example 33, 5-Ethyl-2-[4-[2-[5-(tetrazol-1-yl)indol-1-ylmethyl]pyridin-5-yl]piperidin-1-yl]pyrimidine], the half-maximal effective concentration (EC50) worked out at 15.5 nM.
